Article PMC7782499, “Progerinin, an optimized progerin-lamin A binding inhibitor, ameliorates premature senescence phenotypes of Hutchinson-Gilford progeria syndrome” (Communications Biology, 2021)
“And” between values parts separate entries of the source, which are not always exact repeats. Equal values may be shown once. Read-outs that look alike come from different tables or passages of the source.

Tests used:
HGPS cells = test: Cell proliferation of HGPS cells (MTT assay, cell counting); type: cell-based, human; conditions: for Cell proliferation (rate): 7 days, normalized to DMSO-treated cells; for Cell proliferation after treatment with SLC-D011, Ave / Cell counting after treatment with chemicals, Ave: average; for Cell proliferation after treatment with SLC-D011 / Cell counting after treatment with chemicals: single replicates
Description: (§1) To determine the cellular viability, cells were treated with lonafarnib or SLC-D011 for 2 weeks. For MTT assay, cells were incubated with 0.5 mg/ml of 3-(4,5-dimethythiazol-2-yl)-2,5-diphenyl tetrazolium bromide (MTT) solution for 6 hr at 37 °C. After removing MTT solution, the precipitated materials were dissolved in […] DMSO and quantified by measuring the absorbance at 540 nm.
Fig. S4. Ef fect s of J H4, J H010, and SLC-D011 in ameliorating nuclear deformation of HGPS fibroblasts.
A. JH4, JH010, and SLC-D011 increase population of HGPS cells (n = 3 independent experiment; two-
tailed Student’s t -test), **p<0.001. […]
DAPI indicated DNA. C. Treatment with SLC-D011 (1 µM) for 7 days increased
cell proliferation in three different HGPS cells but not in normal fibroblasts (n = 3 independent experiments;
two-tailed Student’s t-test), **p < 0.001, N.S: not significant. AU, arbitrary units. […]

[1] = In vivo pharmacokinetic (PK) analysis, intravenous and oral; set-up: species or system rats; conditions: for bioavailability: read-out: Bioavailability (BA)
Description: A. In vivo pharmacokinetic (PK) analysis of JH010 (performed in rats). […] B Effect of SLC-D011 on human ERG (hERG). […] C In vivo pharmacokinetic analysis of SLD-D011. […] HEK293 cells transiently transfected with GFP-PG vectors were treated with SLC-D011 for 24 hr (n = 3 independent experiment; two-tailed Student’s t test). […] “Con” means dimethyl sulfoxide (DMSO)-treated control.
At pre-set time-points, blood concentration of JH4 was determined by LC-MS/MS analysis[22],[23]. Other chemicals were also tested using similar protocol. In vitro ADME studies (plasma protein binding, CYP inhibition, microsomal stability, plasma stability, and hERG inhibition) were performed by New Drug Development Center (Daegu, Korea) using standard protocols[24],[25].

[2] = system: normal fibroblasts and HGPS cells; test: Long-term treatment cell viability (MTT assay) in normal fibroblasts and HGPS cells; type: cell-based
Description: as §1
Fig. S12. […] A. SLC-D011, compar ed to lonafarnib, reduces exogenous progerin expression in HEK293 cells. B. Long- t e r m treatment (treated with 2μM ever y ot her day for 2 weeks) with lonafarnib or SLC-D011 was performed for normal fibroblasts and HGPS cells. […]
to determine the cellular viability after treatment with lonafarnib or SLC-D011 (n = 3 independent experiment; two-tailed Student’s t -test), **p < 0.001, *p < 0.05, N.S: not significant. […]

CC1(C)Oc2cc3oc(=O)ccc3cc2C[C@@H]1OC/C=C/c1ccccc1 [SLC-D011]
Cell proliferation (rate) (HGPS cells; AG03198, 2uM): 1.467 and 1.31 and 1.235 and 1.393 and 1.367 and 1.407
Cell proliferation (rate) (HGPS cells; AG03198, 2uM, mean): 1.363
Cell proliferation (rate) (HGPS cells; AG03198, 5uM): 2.067 and 2.103 and 1.735 and 2.25 and 2.2 and 2.259
Cell proliferation (rate) (HGPS cells; AG03198, 5uM, mean): 2.102
Cell counting (HGPS cells; AG03198, 0.1μM, Ave): 13.375
Cell counting (HGPS cells; AG03198, 0.1μM, individual replicate): 15 and 16 and 14 and 8 and 13 and 12
Cell counting (HGPS cells; AG03198, 0.2μM, Ave): 12.25
Cell counting (HGPS cells; AG03198, 0.2μM, individual replicate): 11 and 14 and 12 and 13 and 16 and 10
Cell counting (HGPS cells; AG03198, 0.5μM, Ave): 13.625
Cell counting (HGPS cells; AG03198, 0.5μM, individual replicate): 15 and 13 and 17 and 11 and 10 and 12 and 18
Cell counting (HGPS cells; AG03198, 1μM, Ave): 18
Cell counting (HGPS cells; AG03198, 1μM, individual replicate): 17 and 21 and 26 and 16 and 13
Cell proliferation after treatment with SLC-D011, Ave (HGPS cells; AG03198): 2.85 AU
Cell proliferation after treatment with SLC-D011 (HGPS cells; AG03198): 2.5 AU (2×) and 2.2 AU and 2.7 AU and 3.3 AU and 3.7 AU and 3 AU and 2.9 AU
Cell proliferation after treatment with SLC-D011, Ave (HGPS cells; AG11498): 3.325 AU
Cell proliferation after treatment with SLC-D011 (HGPS cells; AG11498): 3.3 AU (2×) and 3.6 AU and 2.9 AU and 3.5 AU and 3.4 AU and 3.9 AU and 2.7 AU
Cell counting after treatment with chemicals, Ave (HGPS cells; AG11513): 29.75
Cell proliferation after treatment with SLC-D011, Ave (HGPS cells; AG11513): 2.875 AU
Cell counting after treatment with chemicals (HGPS cells; AG11513): 20 (2×) and 29 and 32 and 37 and 42 and 33 and 25
Cell proliferation after treatment with SLC-D011 (HGPS cells; AG11513): 2 AU (2×) and 2.9 AU and 3.2 AU and 3.3 AU (2×) and 3.8 AU and 2.5 AU
Cell proliferation after treatment with SLC-D011, Ave (HGPS cells; N9): 3.975 AU
Cell proliferation after treatment with SLC-D011 (HGPS cells; N9): 3.9 AU and 4.2 AU (2×) and 3.8 AU (2×) and 4 AU and 4.4 AU and 3.5 AU
Concentration promoting cell proliferation and ameliorating nuclear abnormality (HGPS cells; direct cell counting assay, HGPS cells): 100 nM
bioavailability ([1]; rat, blood, oral, 10 mg/kg): 58.1%
Cmax ([1]; rat, blood, oral 5mg/kg (n=3)): 29.7 ng/mL
Tmax ([1]; rat, blood, oral 5mg/kg (n=3)): 2.7 h
AUC ([1]; rat, blood, oral 5mg/kg (n=3), read-out: AUCall, Mean): 144 ng·h/mL
bioavailability ([1]; rat, blood, oral 5 mg/kg): 65.9%
Cell viability ([2]; AG03198, Ave): 1.64 ratio
Cell viability ([2]; AG03198, individual replicate): 1.6383 ratio and 1.687 ratio and 1.593 ratio
Cell viability ([2]; AG11513, Ave): 1.362 ratio
Cell viability ([2]; AG11513, individual replicate): 1.362 ratio and 1.373 ratio and 1.352 ratio
Cell viability ([2]; N9, Ave): 2.552 ratio
Cell viability ([2]; N9, individual replicate): 2.559 ratio and 2.546 ratio and 2.551 ratio

CC1(C)Oc2cc3oc(=O)ccc3cc2CC1OC(=O)C=Cc1cccnc1 (centres unmarked) [JH4]
Cell proliferation (rate) (HGPS cells; AG03198, 2uM): 1.267 and 1.276 and 1.118 and 1.25 and 1.333 and 1.2963
Cell proliferation (rate) (HGPS cells; AG03198, 2uM, mean): 1.257
Cell proliferation (rate) (HGPS cells; AG03198, 5uM): 1.833 and 1.759 and 1.647 and 1.964 and 1.667 and 1.926
Cell proliferation (rate) (HGPS cells; AG03198, 5uM, mean): 1.799
Cell counting after treatment with chemicals, Ave (HGPS cells; AG11513): 28
Cell counting after treatment with chemicals (HGPS cells; AG11513): 22 and 29 and 19 and 40 and 32 and 37 and 17 and 28
AUCINF_obs, Mean ([1]; intravenous 5mg/kg (n=3)): 1.4 ng·h/mL
AUCall, Mean ([1]; intravenous 5mg/kg (n=3)): 1.3 ng·h/mL
MRTINF_obs, Mean ([1]; intravenous 5mg/kg (n=3)): 0.2 h
T1/2, Mean ([1]; intravenous 5mg/kg (n=3)): 6 min
Vss_obs, Mean ([1]; intravenous 5mg/kg (n=3)): 673.9 L/kg
Plasma concentration, Mean ([1]; intravenous 5mg/kg (n=3), 0.08 hr): 4.7 ng/mL
Plasma concentration, Mean ([1]; intravenous 5mg/kg (n=3), 0.25 hr): 1.5 ng/mL
Plasma concentration, Mean ([1]; intravenous 5mg/kg (n=3), 0.5 hr): 0.6 ng/mL
Half-life after in vivo oral administration ([1]; oral 10 mg/kg): extremely short

NC(=O)N1CCC(CC(=O)N2CCC([C@H]3c4ncc(Br)cc4CCc4cc(Cl)cc(Br)c43)CC2)CC1 [lonafarnib, reference compound]
Cell death on long-term treatment ([2]; 2μM every other day for 2 weeks): induced cell death in both normal fibroblasts and HGPS cells
Cell viability ([2]; AG03198, Ave): 0.5027 ratio
Cell viability ([2]; AG03198, individual replicate): 0.6483 ratio and 0.3112 ratio and 0.5484 ratio
Cell viability ([2]; AG11513, Ave): 0.692 ratio
Cell viability ([2]; AG11513, individual replicate): 0.6982 ratio and 0.6988 ratio and 0.6791 ratio
Cell viability ([2]; N9, Ave): 1.642 ratio
Cell viability ([2]; N9, individual replicate): 1.689 ratio and 1.546 ratio and 1.691 ratio
